The values that follow are results of earlier work, collected in patent US20070292887A1, “Immunohistochemical Methods” (Bayer Pharmaceuticals Corporation, priority 2003, published 2007).

Series [1] relates to human cancer cell lines. The conditions noted are these: in vivo.
Series [2] deals with MDA-MB-231 xenografts. The conditions noted are these: MDA-MB-231 xenografts in mice.
Series [3] relates to SKOV3 xenografts. Particulars: SKOV3 xenografts in mice.
Series [4] concerns keratinocytes (normal skin). Particulars: biopsies of normal skin prior to and following administration, humans.
In series [5] the test system is SKOV (human ovarian cancer) cells. The conditions noted are these: preincubation of SKOV cells.
Series [6] relates to human cancer cell lines. Particulars: in vitro.

Molecules are shown by their SMILES. Read-outs that look alike come from different tables or passages of the source.

Take `COc1cc2ncnc(Nc3ccc(F)c(Cl)c3)c2cc1OCCCN1CCOCC1` [ZD1839]: the “proliferation of human cancer cell lines” value in series [1] is reported as “inhibited the proliferation”. In series [2], the “constitutive ERK MAP kinase activation” value was “inhibition” and the tumor growth rates result is reported as “reductions in tumor growth rates”. Besides, in series [3], the “constitutive ERK MAP kinase activation” value is listed as “inhibition” and the tumor growth rates result is “reductions in tumor growth rates”. For the same molecule, in series [4], the “expression of Ki-67 in keratinocytes” value was “decreased expression” and the “expression of activated MAPK in keratinocytes” value is listed as “decreased expression”. Further, in series [5], the “EGF-induced increases in activation of ERK MAP kinases” value is “block” and the “EGF-induced increases in activation of PKB/Akt” value was “block”. Also, the “proliferation of human cancer cell lines” value in series [6] is listed as “inhibited the proliferation”.
